Laboratory results reported in patent US7250401B2, “Therapeutic compositions” (Advanced Therapeutics and Diagnostics, LC, priority 2001, dated 2007).

Assay: Reaction with thionitrobenzoate (detection of thiol-reactive substances, loss of absorbance at 412 nm)
Type: physicochemical
Settings: for rate of reaction with thionitrobenzoate: aqueous solution at pH 7 and 25° C.
Method: A stock solution of 5-thio-2-nitrobenzoate (hereafter referred to as thionitrobenzoate) was prepared by reduction of 5,5′-dithiobis(2-nitrobenzoic acid) (hereafter referred to as DTNB, Aldrich Chemical Company). This stock solution was prepared by mixing 0.1 ml of 0.1 M DTNB dissolved in ethanol (396 mg of DTNB in 10 ml of ethanol), 0.1 ml of 1 M aqueous potassium phosphate buffer (prepared by mixing equal volumes of 1 M monobasic potassium phosphate with 1 M dibasic potassium phosphate), and 0.025 ml of 1 M sodium borohydride dissolved in 1 M NaOH on ice. After incubating this mixture for 10 minutes at ice temperature, 0.1 mL of 1 M monobasic potassium phosphate was added and the resultant solution was diluted to a final volume of 2 ml by addition of 1.675 ml of water.
An alternate method for preparation of a stock solution of thionitrobenzoate involves the use of 2-mercaptoethanol as reductant, in place of sodium borohydride. In this method a 10 mM solution of DTNB was prepared by mixing 39.6 mg of DTNB with 17 mg of sodium bicarbonate and 4 ml of ice-cold water. After allowing the effervescence to subside, this solution was mixed with 0.01 ml of 0.5 M trisodium ethylenediaminetetracetate and 0.1 ml of 1 M potassium phosphate buffer, then diluted to a final volume of 10 ml with water. A separate stock of 10 mM 2-mercaptoethanol was prepared by dilution of neat 2-mercaptoethanol (14.3 M) with water (serial dilution of 0.01 ml of neat 2-mercaptoethanol to 1 ml to give 0.143 M and then dilution of 0.07 ml of this solution to a final volume of 1 ml to give 10 mM). The stock of 8.7 mM thionitrobenzoate was prepared by mixing 2 ml of 1 M potassium phosphate buffer with 0.2 ml of 10 mM 2-mercaptoethanol and 0.1 ml of 10 mM aqueous DTNB.
If 0.01 ml of the 10 mM stock of thionitrobenzoate, obtained by sodium borohydride reduction of DTNB, was diluted with 0.89 ml of water and 0.1 ml of 1 M phosphate buffer, it gave an absorbance at 412 nm of 1.36 in a 1 cm pathlength cuvette. If 0.01 ml of the 8.7 mM stock of thionitrobenzoate obtained by 2-mercaptoethanol reduction of DTNB was diluted with 0.89 ml of water and 0.1 ml of 1 M phosphate buffer, it gave an absorbance at 412 nm of 1.18 in a 1 cm pathlength cuvette. […] (4 M^−1 s^−1).
(<0.05 M^−1 s^−1). DECOSMe (EXAMPLE 4) reacted with thionitrobenzoate under these conditions at a rate of 4 M^−1 s^−1. DETC-MeSO2 (EXAMPLE 5) reacted with thionitrobenzoate under these conditions at a rate of 0.4 M^−1 s^−1. S-Methyl-O-(N,N-diethylcarbamoyl)sulfinate (DECO2SMe, prepared by rearrangement of DETC-MeSO2 under the conditions described in EXAMPLE 4) reacted with thionitrobenzoate under these conditions at a rate of 14 M^−1 s^−1.

Row | SMILES | rate of reaction with thionitrobenzoate, prior to rearrangement to DECOSMe (0.01 ml of 5 mM aqueous solution, freshly synthesized, anaerobic conditions, up to 24 hours) | half time of first-order decay of absorbance at 412 nm (0.01 ml of 0.1 M aqueous solution added to thionitrobenzoate assay mixture, 25° C.) [min] | rate of reaction with thionitrobenzoate (from first-order decay of absorbance at 412 nm) (0.01 ml of 0.1 M aqueous solution added, 25° C.) [M⁻¹ s⁻¹] | rate of reaction with thionitrobenzoate [M⁻¹ s⁻¹]
1 | CCN(CC)C(=O)[S+](C)[O-] (stereo not drawn) [DETC-MeSO, S-Methyl-N,N-Diethylthiolcarbamate Sulfoxide] | less than 0.01 M^−1 s^−1 |  |  | 
2 | CCN(CC)C(=O)OSC [DECOSMe, S-Methyl-O-(N,N-Diethylcarbamoyl)Sulfenate] |  | 2.9 | 4 | 4
3 | CCN(CC)C(=O)S(C)(=O)=O [DETC-MeSO2, S-Methyl-N,N-Diethylthiolcarbamate Sulfone] |  |  |  | 0.4
4 | CCN(CC)C(=O)OS(C)=O (stereo not drawn) [DECO2SMe, S-Methyl-O-(N,N-diethylcarbamoyl)sulfinate] |  |  |  | 14
